The text below walks through data of PMC9750872, “Ras-mutant cancers are sensitive to small molecule inhibition of V-type ATPases in mice” (Nature biotechnology, 2022).

The subject of one experiment is A549 (KRASG12S). As to the kind of experiment: Cell viability screen, CellTiter-Glo, 72 h. Type of experiment: cell-based. The conditions noted are these: Homo sapiens, ATP content/viability. The protocol: (§1) Figure 1: Optimization of Potency and Drug Properties of Small Molecule Inhibitors of Ras- and Raf-mutant Cells using Viability Screens. (A) Cell viability screen of ~300 small molecules in A549 (KRASG12S), LOX IMVI (BRAFV600E), and MelJuso (HRASG13D and NRASQ61L). Cells were treated with vehicle DMSO or increasing concentrations of small molecules in triplicate for 72 h and ATP content/viability was measured using CellTiter-Glo Luminescent Cell Viability Assay. The results shown for all cell viability figures are representative of at least two independent experiments. […] (C) Evolution of the Structure Activity Relationship (SAR) and IC50s of the first (68) and last (249C | lead due to drug-like properties) compounds in the screen. (D) 249C sensitivity for a panel of 53 cancer cell lines (including lung, pancreatic, breast, ovarian, hematological/liver, prostate, colorectal cancers, glioma and melanoma). […] (F) Quantitative whole proteome analysis of the effects of small molecule treatment by mass spectrometry. A549 cells were treated with DMSO or 68 (30 μM), 226C (1μM) or 249C (1μM) for 48 h prior to analysis of proteomes with TMT labeling followed by quantification relative to the DMSO control. […]

A further experiment deals with LOX IMVI (BRAFV600E). In words: Cell viability screen, CellTiter-Glo, 72 h. Type of experiment: cell-based. As to conditions: Homo sapiens, ATP content/viability. The protocol: as §1
Experiment [1] deals with T1, mammalian V-ATPase purified from pig kidneys (Sus scrofa, UniProt Q9TVC1).
T1 construct: the entire V-ATPase complex (800 kDa) was purified as described previously from porcine kidneys; from tissue; host or cells: porcine kidney
T1 sequence (Q9TVC1 whole entry): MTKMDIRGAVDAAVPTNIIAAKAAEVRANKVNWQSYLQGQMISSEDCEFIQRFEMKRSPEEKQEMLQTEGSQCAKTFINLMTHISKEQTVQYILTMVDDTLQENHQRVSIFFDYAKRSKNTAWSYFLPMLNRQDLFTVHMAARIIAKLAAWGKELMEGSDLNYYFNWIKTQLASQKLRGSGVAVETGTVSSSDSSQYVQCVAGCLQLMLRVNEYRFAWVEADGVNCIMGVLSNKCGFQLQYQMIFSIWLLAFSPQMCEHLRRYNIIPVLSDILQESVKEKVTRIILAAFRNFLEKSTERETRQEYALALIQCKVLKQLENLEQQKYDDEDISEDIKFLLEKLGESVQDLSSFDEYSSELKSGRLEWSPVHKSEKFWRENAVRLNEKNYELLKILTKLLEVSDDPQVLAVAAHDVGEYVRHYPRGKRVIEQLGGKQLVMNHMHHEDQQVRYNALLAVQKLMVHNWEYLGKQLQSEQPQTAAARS
T1 sequence (Q29048 whole entry partner): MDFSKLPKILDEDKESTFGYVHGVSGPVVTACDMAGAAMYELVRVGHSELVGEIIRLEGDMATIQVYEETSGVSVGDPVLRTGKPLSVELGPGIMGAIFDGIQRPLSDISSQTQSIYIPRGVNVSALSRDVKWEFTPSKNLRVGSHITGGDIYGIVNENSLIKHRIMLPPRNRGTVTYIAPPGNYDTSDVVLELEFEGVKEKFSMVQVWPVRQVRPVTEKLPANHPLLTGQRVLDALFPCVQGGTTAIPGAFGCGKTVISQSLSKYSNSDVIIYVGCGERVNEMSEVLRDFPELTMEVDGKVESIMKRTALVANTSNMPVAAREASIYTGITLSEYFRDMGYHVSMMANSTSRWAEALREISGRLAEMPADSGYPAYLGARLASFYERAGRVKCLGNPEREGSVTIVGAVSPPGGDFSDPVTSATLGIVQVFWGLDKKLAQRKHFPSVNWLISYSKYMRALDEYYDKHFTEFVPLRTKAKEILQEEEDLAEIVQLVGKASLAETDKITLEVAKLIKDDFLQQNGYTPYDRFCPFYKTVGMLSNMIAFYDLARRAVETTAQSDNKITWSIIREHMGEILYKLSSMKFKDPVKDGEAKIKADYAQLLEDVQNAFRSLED
As to the kind of experiment: Biochemical V-ATPase (ATP hydrolysis) assay. The conditions noted are these: concentrations as low as 1 μM. How it is done:
V-ATPase was purified as described previously from yeast[82] using the detergent dodecylmaltoside and porcine kidney[83] using the detergent glycol-diosgenin. ATPase assays with purified V-ATPase were performed as described previously. 249C (mammalian: 0.1, 1, 10, 100 μM and yeast: 5, 10 and 100 μM) or BafA1 (1 μM) were added to the reaction and compared with a negative control to which only DMSO was added. Enzyme-coupled ATPase biochemical activity assays were performed in a 96-well plate as described previously.

For another experiment, the system named is 468 human kinases. As to the kind of experiment: KINOMEscan profiling. Format: binding. As to conditions: 249C at 10,000 nM. The source says:
The KINOMEscan™ Profiling Service consisting of 468 human kinases was used to assess 249C inhibitor activity to check for off-target effects as previously described.
Supplementary Fi g u re 12: Compound 249C assessed for off-target effects using the KIN OME scanTM screening platform. (A) Selectivity (S-score) for 249C wher e the sco re is a qu antitative measu re o f compound selectivity against human kinases. It is calculate b y dividing the number of k inases that compounds bi nd to b y the total number of distinct kinases tested, excluding mutant variants (S = number of hits / number of assa ys). 1 hit out of >400 kinases is reported for test compound (249C) = 0.002. S(35) = number of non- mutant kinases with % ctrl <35/number of non- mutant kinases; (B) Kinome interaction map for 249C at 10,000 nM. Each red dot indicates a kinase found to bind, where larger dots indicate higher affinit y interactions.
1 Tyrosine Kinase (TK) out of >400 kinases ( created in TREEspotTM ) with low affinity. This is calculated using
Dissociation constants (Kds) were determined using 249C at 30,000 nM, Hill slopes were set to - 1 and curves were fitted using a non- linear least square fit with the […]
(1 picture or pasted object on this page, not shown here)

Another experiment relates to MEFs KRAS G13D. In words: Cell proliferation of Ras-less MEFs expressing human KRAS/BRAF. As to conditions: Mus musculus.
Another experiment relates to MEFs KRAS G12S. The experiment is described as above. As to conditions: Mus musculus.

Protocol for MEFs KRAS G12S: (§2) Logarithmically growing cells were plated in antibiotic-free medium supplemented with 2% fetal bovine serum at a density of 5,000 cells per well. The next day, cells were treated in triplicates with increasing doses of in-house small molecule inhibitor drugs and a DMSO vehicle control for 3 days and subsequently assessed for cell viability by measurement of ATP with CellTiter-Glo Luminescent Cell Viability Assay (Promega). Signal intensity was read on a Glomax™ 96 Microplate Luminometer (Promega) with GLOMAX software (version 1.9.3) and percent cell survival was calculated based on the reading of vehicle control cells set as 100% using Excel (2012) and GraphPad Prism (version 6)Each compound was tested a minimum of 2 times with n = 3. All cell proliferation assays (cancer cell lines or MEFs) were done in a similar way.
Protocol for MEFs KRAS G13D: Cell proliferation assays of stable cell lines treated with V-ATPase inhibitors 249C and BafA1, HCQ analog (DC661), KRASG12C inhibitor (AMG510) and autophagy inducer (CMA). For each bar, n = 3. Representative of 3 biological replicates (mean ± SD). Two-sided t-test with no adjustments for multiple comparisons.
as §2

With `CN1CCOC(CNC(=O)C2(C)C(c3ccc(Cl)o3)C(c3ccc(F)cc3F)=NN2c2ccc(F)cc2F)C1` (stereo not drawn) [Compound 249C], the IC50 worked out at 73 nM in the experiment on A549 (KRASG12S), 60 nM in the experiment on LOX IMVI (BRAFV600E), 70 nM in the experiment with MEFs KRAS G13D and 230 nM with MEFs KRAS G12S. For the same compound, the “ATP hydrolysis of intact mammalian V-ATPase” value in experiment [1] is given as “blocked ATP hydrolysis”. The “number of kinases found to bind out of >400 kinases” value with 468 human kinases amounted to 1.
